Results from PubChem BioAssay (NCI).
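All cell lines were grown in 96-well plates and treated with compound for 48 hours. Definition used: TGI = concentration required for complete inhibition of growth.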

What was measured:
Experiment in all cases: NCI tumour cell line growth inhibition, 48 h
UO-31 renal = tested on: UO-31 renal
HOP-62 NSCLC = tested on: HOP-62 NSCLC
RXF 393 renal = tested on: RXF 393 renal
HCT-116 colon = tested on: HCT-116 colon
OVCAR-5 ovarian = tested on: OVCAR-5 ovarian
COLO 205 colon = tested on: COLO 205 colon
CCRF-CEM leukemia = tested on: CCRF-CEM leukemia
U251 CNS = tested on: U251 CNS
NCI-H226 lung = tested on: NCI-H226 lung
IGROV1 ovarian = tested on: IGROV1 ovarian
OVCAR-4 ovarian = tested on: OVCAR-4 ovarian
OVCAR-8 ovarian = tested on: OVCAR-8 ovarian
MCF7 breast = tested on: MCF7 breast
NCI-H23 lung = tested on: NCI-H23 lung
NCI-H460 lung = tested on: NCI-H460 lung
K-562 leukemia = tested on: K-562 leukemia
UACC-257 melanoma = tested on: UACC-257 melanoma
BT-549 breast = tested on: BT-549 breast
MALME-3M melanoma = tested on: MALME-3M melanoma
MOLT-4 leukemia = tested on: MOLT-4 leukemia
SF-295 CNS = tested on: SF-295 CNS
PC-3 prostate = tested on: PC-3 prostate
HOP-92 NSCLC = tested on: HOP-92 NSCLC
786-0 renal = tested on: 786-0 renal
HS 578T breast = tested on: HS 578T breast
A498 renal = tested on: A498 renal
DU-145 prostate = tested on: DU-145 prostate
SN12C renal = tested on: SN12C renal
SNB-19 CNS = tested on: SNB-19 CNS
HCC-2998 colon = tested on: HCC-2998 colon
SK-MEL-2 melanoma = tested on: SK-MEL-2 melanoma
HCT-15 colon = tested on: HCT-15 colon
ACHN renal = tested on: ACHN renal
M14 melanoma = tested on: M14 melanoma
SK-OV-3 ovarian = tested on: SK-OV-3 ovarian
A549 NSCLC = tested on: A549 NSCLC
HL-60(TB) leukemia = tested on: HL-60(TB) leukemia
KM12 colon = tested on: KM12 colon
TK-10 renal = tested on: TK-10 renal
SNB-75 CNS = tested on: SNB-75 CNS
LOX IMVI melanoma = tested on: LOX IMVI melanoma
SF-539 CNS = tested on: SF-539 CNS
SF-268 CNS = tested on: SF-268 CNS
MDA-MB-435 = tested on: MDA-MB-435
SK-MEL-5 melanoma = tested on: SK-MEL-5 melanoma
T-47D breast = tested on: T-47D breast
CAKI-1 renal = tested on: CAKI-1 renal
NCI/ADR-RES ovarian = tested on: NCI/ADR-RES ovarian
MDA-N = tested on: MDA-N
RPMI-8226 leukemia = tested on: RPMI-8226 leukemia
OVCAR-3 ovarian = tested on: OVCAR-3 ovarian
UACC-62 melanoma = tested on: UACC-62 melanoma
MDA-MB-231 breast = tested on: MDA-MB-231 breast
HT29 colon = tested on: HT29 colon
SW-620 colon = tested on: SW-620 colon
EKVX NSCLC = tested on: EKVX NSCLC
SK-MEL-28 melanoma = tested on: SK-MEL-28 melanoma
NCI-H522 lung = tested on: NCI-H522 lung

`O=C(C(=NC12CC3CC(CC(C3)C1)C2)NNc1ccc([N+](=O)[O-])cc1[N+](=O)[O-])C(Br)C(=O)c1ccccc1` (configuration not stated) was tested, and the TGI (UO-31 renal) was over 10 µM, the TGI (HOP-62 NSCLC) was 6.84 µM and the TGI (RXF 393 renal) was 8.31 µM. It also gave a TGI (HCT-116 colon) of 8.78 µM, a TGI (OVCAR-5 ovarian) of over 10 µM and a TGI (COLO 205 colon) of 4.23 µM. For the same compound, the TGI (CCRF-CEM leukemia) was 7.67 µM, the TGI (U251 CNS) was over 10 µM and the TGI (NCI-H226 lung) was 8.31 µM. The TGI (IGROV1 ovarian) was over 10 µM, the TGI (OVCAR-4 ovarian) was over 10 µM and the TGI (OVCAR-8 ovarian) was over 10 µM. It also gave a TGI (MCF7 breast) of over 10 µM, a TGI (NCI-H23 lung) of 8.4 µM and a TGI (NCI-H460 lung) of over 10 µM. The TGI (K-562 leukemia) was over 10 µM, the TGI (UACC-257 melanoma) was 6.28 µM and the TGI (BT-549 breast) was over 10 µM. It also gave a TGI (MALME-3M melanoma) of over 10 µM, a TGI (MOLT-4 leukemia) of 9.72 µM and a TGI (SF-295 CNS) of over 10 µM. It also gave a TGI (PC-3 prostate) of 9.87 µM, a TGI (HOP-92 NSCLC) of 6.66 µM and a TGI (786-0 renal) of over 10 µM. The TGI (HS 578T breast) was over 10 µM, the TGI (A498 renal) was 6.96 µM and the TGI (DU-145 prostate) was over 10 µM. For the same compound, the TGI (SN12C renal) was over 10 µM, the TGI (SNB-19 CNS) was over 10 µM and the TGI (HCC-2998 colon) was over 10 µM. For the same compound, the TGI (SK-MEL-2 melanoma) was over 10 µM, the TGI (HCT-15 colon) was over 10 µM and the TGI (ACHN renal) was over 10 µM. The TGI (M14 melanoma) was 6.84 µM, the TGI (SK-OV-3 ovarian) was 9.04 µM and the TGI (A549 NSCLC) was over 10 µM. The TGI (HL-60(TB) leukemia) was 5.57 µM, the TGI (KM12 colon) was over 10 µM and the TGI (TK-10 renal) was over 10 µM. For the same compound, the TGI (SNB-75 CNS) was 7.38 µM, the TGI (LOX IMVI melanoma) was 6.25 µM and the TGI (SF-539 CNS) was 8.73 µM. For the same compound, the TGI (SF-268 CNS) was over 10 µM, the TGI (MDA-MB-435) was over 10 µM and the TGI (SK-MEL-5 melanoma) was 2.5 µM. For the same compound, the TGI (T-47D breast) was 9.29 µM, the TGI (CAKI-1 renal) was over 10 µM and the TGI (NCI/ADR-RES ovarian) was over 10 µM. The TGI (MDA-N) was over 10 µM, the TGI (RPMI-8226 leukemia) was 6.38 µM and the TGI (OVCAR-3 ovarian) was 8.83 µM. For the same compound, the TGI (UACC-62 melanoma) was over 10 µM, the TGI (MDA-MB-231 breast) was 6.13 µM and the TGI (HT29 colon) was over 10 µM. For the same compound, the TGI (SW-620 colon) was over 10 µM, the TGI (EKVX NSCLC) was 9.64 µM and the TGI (SK-MEL-28 melanoma) was over 10 µM.
`OCCNc1ncnc2nc[nH]c12` was tested, and the TGI (UO-31 renal) was over 100 µM, the TGI (HOP-62 NSCLC) was over 100 µM and the TGI (RXF 393 renal) was over 100 µM. For the same compound, the TGI (HCT-116 colon) was over 100 µM, the TGI (OVCAR-5 ovarian) was over 100 µM and the TGI (COLO 205 colon) was over 100 µM. The TGI (U251 CNS) was over 100 µM, the TGI (NCI-H226 lung) was over 100 µM and the TGI (NCI-H522 lung) was over 100 µM. It also gave a TGI (IGROV1 ovarian) of over 100 µM, a TGI (OVCAR-4 ovarian) of over 100 µM and a TGI (OVCAR-8 ovarian) of over 100 µM. The TGI (MCF7 breast) was over 100 µM, the TGI (NCI-H23 lung) was over 100 µM and the TGI (NCI-H460 lung) was over 100 µM. For the same compound, the TGI (K-562 leukemia) was over 100 µM, the TGI (UACC-257 melanoma) was over 100 µM and the TGI (BT-549 breast) was over 100 µM. It also gave a TGI (MALME-3M melanoma) of over 100 µM, a TGI (MOLT-4 leukemia) of over 100 µM and a TGI (SF-295 CNS) of over 100 µM. The TGI (PC-3 prostate) was over 100 µM, the TGI (HOP-92 NSCLC) was over 100 µM and the TGI (786-0 renal) was over 100 µM. The TGI (HS 578T breast) was over 100 µM, the TGI (A498 renal) was over 100 µM and the TGI (DU-145 prostate) was over 100 µM. For the same compound, the TGI (SN12C renal) was over 100 µM, the TGI (SNB-19 CNS) was over 100 µM and the TGI (HCC-2998 colon) was over 100 µM. The TGI (SK-MEL-2 melanoma) was over 100 µM, the TGI (HCT-15 colon) was over 100 µM and the TGI (ACHN renal) was over 100 µM. The TGI (M14 melanoma) was over 100 µM, the TGI (SK-OV-3 ovarian) was over 100 µM and the TGI (A549 NSCLC) was over 100 µM. It also gave a TGI (HL-60(TB) leukemia) of over 100 µM, a TGI (KM12 colon) of over 100 µM and a TGI (TK-10 renal) of over 100 µM. It also gave a TGI (SNB-75 CNS) of over 100 µM, a TGI (LOX IMVI melanoma) of over 100 µM and a TGI (SF-268 CNS) of over 100 µM. For the same compound, the TGI (MDA-MB-435) was over 100 µM, the TGI (SK-MEL-5 melanoma) was over 100 µM and the TGI (T-47D breast) was over 100 µM. The TGI (CAKI-1 renal) was over 100 µM, the TGI (NCI/ADR-RES ovarian) was over 100 µM and the TGI (MDA-N) was over 100 µM. It also gave a TGI (RPMI-8226 leukemia) of over 100 µM, a TGI (OVCAR-3 ovarian) of over 100 µM and a TGI (UACC-62 melanoma) of over 100 µM. It also gave a TGI (MDA-MB-231 breast) of over 100 µM, a TGI (HT29 colon) of over 100 µM and a TGI (SW-620 colon) of over 100 µM. For the same compound, the TGI (EKVX NSCLC) was over 100 µM and the TGI (SK-MEL-28 melanoma) was over 100 µM.
Work on `C[C@]12CC(c3ccccc3O1)C(C(N)=O)C(=O)N2` (some centres not stated) yielded a TGI (HOP-62 NSCLC) of over 100 µM, a TGI (RXF 393 renal) of over 100 µM and a TGI (HCT-116 colon) of over 100 µM. The TGI (OVCAR-5 ovarian) was over 100 µM, the TGI (COLO 205 colon) was over 100 µM and the TGI (CCRF-CEM leukemia) was over 100 µM. The TGI (U251 CNS) was over 100 µM, the TGI (NCI-H226 lung) was over 100 µM and the TGI (NCI-H522 lung) was over 100 µM. It also gave a TGI (IGROV1 ovarian) of over 100 µM, a TGI (OVCAR-4 ovarian) of over 100 µM and a TGI (OVCAR-8 ovarian) of over 100 µM. For the same compound, the TGI (MCF7 breast) was over 100 µM, the TGI (NCI-H23 lung) was over 100 µM and the TGI (NCI-H460 lung) was over 100 µM. For the same compound, the TGI (K-562 leukemia) was over 100 µM, the TGI (UACC-257 melanoma) was over 100 µM and the TGI (BT-549 breast) was over 100 µM. It also gave a TGI (MALME-3M melanoma) of over 100 µM, a TGI (MOLT-4 leukemia) of over 100 µM and a TGI (PC-3 prostate) of over 100 µM. For the same compound, the TGI (HOP-92 NSCLC) was over 100 µM, the TGI (786-0 renal) was over 100 µM and the TGI (HS 578T breast) was over 100 µM. It also gave a TGI (A498 renal) of over 100 µM, a TGI (DU-145 prostate) of over 100 µM and a TGI (SN12C renal) of over 100 µM. For the same compound, the TGI (SNB-19 CNS) was over 100 µM, the TGI (HCC-2998 colon) was over 100 µM and the TGI (SK-MEL-2 melanoma) was over 100 µM. For the same compound, the TGI (HCT-15 colon) was over 100 µM, the TGI (ACHN renal) was over 100 µM and the TGI (M14 melanoma) was over 100 µM. The TGI (SK-OV-3 ovarian) was over 100 µM, the TGI (A549 NSCLC) was over 100 µM and the TGI (HL-60(TB) leukemia) was over 100 µM. For the same compound, the TGI (KM12 colon) was over 100 µM, the TGI (SNB-75 CNS) was over 100 µM and the TGI (LOX IMVI melanoma) was over 100 µM. It also gave a TGI (SF-268 CNS) of over 100 µM, a TGI (MDA-MB-435) of over 100 µM and a TGI (SK-MEL-5 melanoma) of over 100 µM. For the same compound, the TGI (T-47D breast) was over 100 µM, the TGI (CAKI-1 renal) was over 100 µM and the TGI (NCI/ADR-RES ovarian) was over 100 µM. It also gave a TGI (MDA-N) of over 100 µM, a TGI (RPMI-8226 leukemia) of over 100 µM and a TGI (OVCAR-3 ovarian) of over 100 µM. It also gave a TGI (UACC-62 melanoma) of over 100 µM, a TGI (MDA-MB-231 breast) of over 100 µM and a TGI (HT29 colon) of over 100 µM. For the same compound, the TGI (SW-620 colon) was over 100 µM, the TGI (EKVX NSCLC) was over 100 µM and the TGI (SK-MEL-28 melanoma) was over 100 µM.
